The OligoGym collection
HELM strings list units from the 5' end as sugar, base in round brackets, then linkage (d deoxyribose, r ribose, m 2'-O-methyl, p phosphodiester). Strings are as the collection lists them; they lack the last nucleoside at the 3' end of the tested compound. [moe] = 2'-O-(2-methoxyethyl) (MOE); [sp] = phosphorothioate linkage; [m5C] = 5-methylcytosine

Biological target: C9ORF72
Experiment: mouse, dose not given
Details: ASO

Question: For “RNA1{[moe](T)[sp].[moe]([m5C])p.[moe](T)p.d(G)[sp].d(T)[sp].d([m5C])[sp].d(T)[sp].d(T)[sp].d(T)[sp].d(G)[sp].d(G)[sp].d(A)[sp].d(G)[sp].[moe]([m5C])p.[moe]([m5C])p.[moe]([m5C])p.[moe](A)p.[moe](A)[sp].[moe](A)}$$$$ (last 3' nucleoside missing)”, which 3 h FOB score is on record?
Answer: 6.75 score 0-7

Question: Which 3 h FOB score does the source give for “RNA1{[moe]([m5C])[sp].[moe](G)p.[moe](G)p.[moe]([m5C])p.[moe]([m5C])p.[moe]([m5C])[sp].d([m5C])[sp].d(T)[sp].d(A)[sp].d(G)[sp].d([m5C])[sp].d(G)[sp].d([m5C])[sp].d(G)[sp].[moe]([m5C])p.[moe](G)[sp].[moe](A)}$$$$ (last 3' nucleoside missing)” here?
Answer: 4.5 score 0-7

Question: “RNA1{[moe]([m5C])[sp].[moe](A)p.[moe](G)p.[moe](G)p.d([m5C])[sp].d(T)[sp].d(G)[sp].d([m5C])[sp].d(G)[sp].d(G)[sp].d(T)[sp].d(T)[sp].d(G)[sp].[moe](T)p.[moe](T)p.[moe](T)p.[moe]([m5C])[sp].[moe]([m5C])}$$$$ (last 3' nucleoside missing)” was tested. Which 3 h FOB score did it give?
Answer: 4 score 0-7

Question: How did the 3 h FOB score turn out when “RNA1{[moe](T)[sp].[moe](G)p.[moe](G)p.[moe](T)p.[moe](T)p.[moe](A)p.d(A)[sp].d(T)[sp].d([m5C])[sp].d(T)[sp].d(T)[sp].d(T)[sp].d(A)[sp].d(T)[sp].d([m5C])[sp].d(A)[sp].[moe](G)p.[moe](G)[sp].[moe](T)}$$$$ (last 3' nucleoside missing)” was run?
Answer: 1 score 0-7

Question: “RNA1{[moe](G)[sp].[moe]([m5C])p.[moe]([m5C])p.[moe](T)p.[moe](T)p.[moe](A)p.d([m5C])[sp].d(T)[sp].d([m5C])[sp].d(T)[sp].d(A)[sp].d(G)[sp].d(G)[sp].d(A)[sp].d([m5C])[sp].d([m5C])[sp].[moe](A)p.[moe](A)[sp].[moe](G)}$$$$ (last 3' nucleoside missing)” was tested. Which 3 h FOB score did it give?
Answer: 2.25 score 0-7

Question: “RNA1{[moe](T)[sp].[moe](A)[sp].[moe]([m5C])[sp].[moe](A)[sp].[moe](G)[sp].d(G)[sp].d([m5C])[sp].d(T)[sp].d(G)[sp].d([m5C])[sp].d(G)[sp].d(G)[sp].d(T)[sp].d(T)[sp].d(G)[sp].[moe](T)[sp].[moe](T)[sp].[moe](T)[sp].[moe]([m5C])}$$$$ (last 3' nucleoside missing)” was tested. Which 3 h FOB score did it give?
Answer: 7 score 0-7

Question: With “RNA1{[moe]([m5C])[sp].[moe]([m5C])p.[moe]([m5C])p.[moe]([m5C])p.[moe](T)p.[moe](A)[sp].d(G)[sp].d([m5C])[sp].d(G)[sp].d([m5C])[sp].d(G)[sp].d([m5C])[sp].d(G)[sp].d(A)[sp].[moe]([m5C])p.[moe](T)[sp].[moe]([m5C])}$$$$ (last 3' nucleoside missing)” as the substance, how does the 3 h FOB score read?
Answer: 2 score 0-7

Question: Which 3 h FOB score does the source give for “RNA1{[moe](G)[sp].[moe](G)p.[moe](T)p.[moe](T)p.d(A)[sp].d(A)[sp].d(T)[sp].d([m5C])[sp].d(T)[sp].d(T)[sp].d(T)[sp].d(A)[sp].d(T)[sp].d([m5C])[sp].[moe](A)p.[moe](G)p.[moe](G)p.[moe](T)[sp].[moe]([m5C])}$$$$ (last 3' nucleoside missing)” here?
Answer: 0 score 0-7

Question: With “RNA1{[moe](G)[sp].[moe]([m5C])[sp].[moe]([m5C])[sp].[moe](T)[sp].[moe](T)[sp].d(A)[sp].d([m5C])[sp].d(T)[sp].d([m5C])[sp].d(T)[sp].d(A)[sp].d(G)[sp].d(G)[sp].d(A)[sp].d([m5C])[sp].[moe]([m5C])[sp].[moe](A)[sp].[moe](A)[sp].[moe](G)}$$$$ (last 3' nucleoside missing)” as the substance, how does the 3 h FOB score read?
Answer: 7 score 0-7

Question: With “RNA1{[moe]([m5C])[sp].[moe]([m5C])p.[moe]([m5C])p.[moe](T)[sp].d(A)[sp].d(G)[sp].d([m5C])[sp].d(G)[sp].d([m5C])[sp].d(G)[sp].d([m5C])[sp].d(G)[sp].[moe](A)p.[moe]([m5C])p.[moe](T)p.[moe]([m5C])[sp].[moe]([m5C])}$$$$ (last 3' nucleoside missing)” as the substance, how does the 3 h FOB score read?
Answer: 1 score 0-7

Question: For “RNA1{[moe]([m5C])[sp].[moe](T)p.[moe](A)p.[moe](G)[sp].d([m5C])[sp].d(G)[sp].d([m5C])[sp].d(G)[sp].d([m5C])[sp].d(G)[sp].d(A)[sp].d([m5C])[sp].[moe](T)p.[moe]([m5C])p.[moe]([m5C])p.[moe](T)[sp].[moe](G)}$$$$ (last 3' nucleoside missing)”, which 3 h FOB score is on record?
Answer: 3.25 score 0-7
